Assay results reported in ChEMBL document CHEMBL1201862, “PubChem BioAssay data set” (2004).
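Tested at 5 concentrations; 48 h exposure; 96-well plates; endpoints linearly interpolated, else capped at highest concentration. At the GI50, growth is halved.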 Activity calls are given as the source filed them. Cut-off read from the data, not from the text of the source: active = GI50 up to about 1.1 µM and inactive = higher.

Key:
Test in all cases: NCI-60 cell line screen, 48 h
[1] = tested on: DU-145
[2] = tested on: MDA-MB-231
[3] = tested on: MDA-MB-435
[4] = tested on: MDA-N
[5] = tested on: PC-3
[6] = tested on: T47D
[7] = tested on: SNB-78
[8] = tested on: XF498
[9] = tested on: RXF 631

Measured: GI50

CC(NC(=O)C(NC(=O)CNC(=O)OC(C)(C)C)C(C)C)C(=O)Oc1c(Cl)c(Cl)c(Cl)c(Cl)c1Cl (stereo not given)
inactive: [1] 20.5 µM | [2] 22.6 µM | [3] 23.4 µM | [4] 25.1 µM | [5] 16 µM | [6] 23.1 µM

CC1(CO)C(O)CCC2(C)C1C(O)CC1CC3CC12CCC3(O)CO (stereo not given)
inactive: [7] > 225 µM | [8] 29.6 µM

CCOCC(=O)N(C)c1cccc2c3c(n(C)c12)CCCCC3
inactive: [7] > 100 µM | [8] > 93.8 µM

C=CCN1C(=O)/C(=C/c2ccccc2)N=C1SC1OC(COC(=O)c2ccccc2)C(OC(=O)c2ccccc2)C1OC(=O)c1ccccc1 (stereo not given)
inactive: [1] > 100 µM | [2] 91.2 µM | [3] > 100 µM | [5] > 100 µM

Cc1cc(OCC(O)CO)ccc1Cl (stereo not given)
inactive: [9] > 100 µM

COC(=O)C1=C(OC(=O)/C(=C/c2ccc(Cl)cc2)c2ccc(Cl)cc2)C(C(=O)OC)[C@@]2(O)[C@@H](C(=O)OC)[C@H](C)C[C@@H]1[C@@H]2C(=O)OC (stereo not given in full)
inactive: [1] > 100 µM | [2] > 71.9 µM | [3] > 100 µM | [4] > 100 µM | [5] 12.6 µM | [6] > 74 µM

N#CCCN(CCC#N)c1ccc(/C=C2\N=C(c3cc([N+](=O)[O-])ccc3Cl)N(NC(=O)CC(=O)Nc3ccccc3Cl)C2=O)cc1
inactive: [7] > 100 µM | [8] > 100 µM

COC(=O)/C(=C\c1ccco1)P(=O)(OC)OC
inactive: [1] 80.9 µM | [2] 38.8 µM | [3] 34.8 µM | [4] 56.1 µM | [5] 73.5 µM | [6] > 100 µM

O=[N+]([O-])c1ccc(CNC2=NNS(=O)(=O)c3ccccc32)cc1
inactive: [9] > 100 µM | [7] > 100 µM | [8] > 100 µM

C[C@]1(O)CC(=O)c2c(c(-c3ccc4cc5c(c(O)c4c3O)C(=O)C[C@@](C)(O)C5)c3cccc(O)c3c2O)C1
inactive: [1] 5.53 µM | [2] 4.91 µM | [3] 7.05 µM | [4] 4.56 µM | [5] 3.08 µM | [6] 2.86 µM

COc1ccc(NC(=O)/C(=C/c2ccc(N(CCC#N)CCC#N)cc2)NC(=O)c2cc([N+](=O)[O-])ccc2Cl)cc1
inactive: [9] 99.5 µM | [7] > 100 µM | [8] > 100 µM

CN(C)C(=S)/N=C1\SC(=N\c2ccccc2)/C(=N/c2ccccc2)N1c1ccc([N+](=O)[O-])cc1
inactive: [1] > 100 µM | [2] > 100 µM | [3] > 100 µM | [4] > 100 µM | [5] 8.32 µM | [6] > 100 µM

CN(C)C(=S)/N=c1\ss/c(=N\C(=S)N(C)C)n1C1CCCCC1
inactive: [7] 49.4 µM

CC1(C)O[C@H](C(=O)O)[C@@H](C(=O)O)O1
inactive: [1] > 100 µM | [2] > 100 µM | [3] > 100 µM | [4] > 100 µM | [5] > 100 µM | [6] > 100 µM

COC(=N)C(C)C
inactive: [7] > 100 µM

N#CC1(C#N)C2CCCCC23OC(=N)C1(C#N)C(c1ccccc1)O3 (stereo not given)
inactive: [1] 20.5 µM | [2] 16.4 µM | [3] 25.6 µM | [4] 14 µM | [5] 21.4 µM | [6] 17.5 µM

Cn1c2c(c3ccccc31)CCN(CCCN1CCN(c3ccccc3)CC1)C2=O
inactive: [8] 12.6 µM

NC(CSC(=O)c1ccccc1)C(=O)O (stereo not given)
inactive: [1] > 100 µM | [2] > 100 µM | [3] > 100 µM | [4] > 100 µM | [5] > 100 µM

CN1CCN(C(=S)N(C(=O)c2ccc(Cl)cc2)C2CCCCC2)CC1
inactive: [1] > 100 µM | [2] > 100 µM | [3] > 100 µM | [4] > 100 µM | [6] > 100 µM

[N-]=[N+]=NC1(Cc2ccccc2)C(=O)Nc2ccccc2C1=O (stereo not given)
inactive: [7] 52.8 µM | [8] > 100 µM

C=C1CCCC2[C@](C)(CC3=C(O)C(=O)C=C(OC)C3=O)[C@@H](C)CC[C@]12C (stereo not given in full)
inactive: [9] 9.62 µM | [8] 16.7 µM

CC#CC#C/C=C1\C=CC2(OC=CC2OC(C)=O)O1 (stereo not given)
inactive: [1] 20.4 µM | [2] 17.8 µM | [3] 29.4 µM | [4] 15.8 µM | [5] 28.2 µM | [9] 14.5 µM | [7] 10.4 µM | [6] 24.1 µM | [8] 21.3 µM

O=C1C=C2SC3C[C@@]24CC1(O)[N+]1=c2c4c(c(O)c4c2=C(C=N4)CC1)N3
inactive: [7] 1.61 µM | [8] 1.85 µM

COc1cc(CCc2ccc(N)cc2)cc(OC)c1OC
inactive: [9] > 58.1 µM | [7] 39.1 µM | [8] 64.6 µM
